Test results published in PMC10447463, “Data-mining unveils structure–property–activity correlation of viral infectivity enhancing self-assembling peptides” (Nature Communications, 2023).
Where two headings read alike, the source gives them in different places.

Key:
[1] = type: physicochemical; set-up: key to Fibril / Fibril Formation / TEM 2cat / Fibril: 1 = fibrils present; 0 non-fibrillar structures; settings: for Fibril / Fibril Formation: 1 mg/mL, uranyl acetate stain, qualitative
[2] = Turbidity, derived count rate of scattered light; type: physicochemical; settings: for Count Rate: derived count rate of scattered light (turbidity); for Log10 Count Rate: turbidity, derived count rate of scattered light, data of Figure 2D
[3] = Turbidity, derived count rate of scattered light; type: physicochemical; settings: for Count Rate / kcps: derived count rate of scattered light at 633 nm, 173°, from zeta-potential measurement, 0.1 mg/mL in 1 mM KCl after 1 d at 1 mg/mL in PBS, turbidity / microscopic aggregation, mean of triplicate
Summary of the method: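 Samples: 1 mg/mL in PBS pH 7.4 (from DMSO), 1 d at RT, then diluted in 1 mM KCl immediately before measurement. Triplicates, two independent runs averaged.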

[4] = β-sheet content by ATR-FT-IR; type: physicochemical; settings: for b -sheet / %: Fig. S7 panel A, β-sheet content by ATR-FT-IR; for ß-sheet / %: ATR-FT-IR of lyophilised 1 mg/mL PNF solution, peak integral ratio 1625-1635 cm-1, measured once
Summary of the method: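 ATR FT-IR, diamond crystal, 64 scans, 2 cm^-1, on freeze-dried 1 mg/mL PNF; β-sheet per prior calculation. Fluorescamine CR: 3 kDa filter, DMSO redissolution, 20 min RT, ex 365/em 470 nm; values as n-fold enhancement over DMSO (set to 1).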

[5] = Zeta-potential measurement; type: physicochemical; settings: for Zeta pot. / mV: 1 mg/mL in PBS pH 7.4 from 10 mg/mL DMSO stock, 1 d RT, 60 µL diluted in 600 µL 1 mM KCl, Zetasizer Nano ZS, Smoluchowski, mean of triplicate
Summary of the method: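 Zeta potentials of aggregated peptides come from electrophoretic mobility (Smoluchowski model) in 1 mM KCl after a 1 d RT incubation at 1 mg/mL in PBS, pH 7.4.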

[6] = Fig S10 panel D, fibril category by TEM
[7] = TEM, 1 = fibrils present, 0 = non-fibrillar
[8] = TEM, 1 = fibrils present, 0 = non-fibrillar structures
[9] = category: fibrils present or non-fibrillar
[10] = Log10 of derived count rate of scattered light (turbidity)
[11] = log10 of derived count rate of scattered light (turbidity)
[12] = logarithm of count rate in kcps
[13] = turbidity, Log10 of derived count rate of scattered light, Figure 3A source data
[14] = zeta potential of peptide assemblies
[15] = zeta-potential of peptide, source data of Figure 2C
[16] = zeta-potential of the peptide assemblies, mean, Figure 3A source data
[17] = FigS12 panel A, fibril category by TEM
[18] = turbidity, log10 of derived count rate of scattered light

Substance | TEM 2cat [1, 6] | Fibril / Fibril Formation ([1]; TEM) | Fibril [1, 7] | Fibril [1, 8] | TEM 2cat [1, 9] | Count Rate [2] | Log10 Count Rate [2] | Log10 Count Rate [3, 10] | Count Rate / kcps [3] [kcps] | Log10 Count Rate [3, 11] | Log10 Count Rate [3, 13] | b -sheet / % [4] [%] | Zeta-Pot. [5, 14] | Zeta-Potential / mV [5, 15] [mV] | Zeta-Potential / mV [5, 16] [mV] | Zeta-Pot. [5] | also measured
HHHHKIKIKIKIYYYY | 0 | 0 | 0 | 0 | 0 | 12792.53333 | 4.107 | 4.107 | 12793 | 4.107 | 4.107 | 53.27 | 13.2 | 12.88 | 13.2 | – | Log10 Count Rate [3, 12]: 4.107; Zeta Count Rate ([3]; peptides with TEM 2cat 0): 12793 kcp; beta sheet ([4]; peptides with TEM 2cat 0): 53
HHHHKIKIQINMYYYY | 1 | 1 | 1 | 1 | 1 | 5659 | 3.753 | 3.753 | 5659 | 3.753 | 3.753 | 46.73 | 7.807 | 7.147 | 7.81 | – | Fibril ([1]; Fig S10 panel E): 1; Log10 Count Rate [3, 12]: 3.753
IKVAVKIKIQINM | 1 | 1 | 1 | 1 | 1 | 4848 | 3.686 | 3.686 | 4848 | 3.686 | 3.686 | 58.1 | – | 14.18 | 14.5 | 14.5 | –
ILKNLSRSRKIKIQIC | 1 | 1 | 1 | 1 | 1 | 2392 | 3.379 | 3.379 | 2392 | 3.379 | 3.379 | 37.6 | 18 | 19.25 | 18 | – | –
ILKNLSRSRKIKIQINMWQ | 1 | 1 | 1 | 1 | 1 | 306.5 | 2.486 | 2.486 | 307 | 2.486 | 2.486 | 39.13 | – | 17.9 | 19.2 | 19.2 | –
KAKAKAQA | 0 | 0 | 0 | 0 | – | 76.93 | 1.886 | 1.886 | 77 | 1.886 | 1.886 | 39.62 | -9.01 | -5.297 | -9.01 | – | TEM 2cat [1, 17]: 0; Fibril ([1]; FigS12 panel B, TEM): 0
KAKAQANM | 0 | 0 | 0 | 0 | – | 42.5 | 1.628 | 1.628 | 43 | 1.628 | 1.628 | 32.8491 | -2.62 | -2.065 | -2.62 | – | TEM 2cat [1, 17]: 0; Fibril ([1]; FigS12 panel B, TEM): 0; Log10 Count Rate [3, 12]: 1.6; ß-sheet / % [4]: 33%; Zeta pot. / mV [5]: -2.6 mV
KFKFEFEF | 1 | 1 | 1 | 1 | – | 2186 | 3.34 | 3.34 | 2186 | 3.34 | 3.34 | 40.95 | -2.55 | -2.87 | -2.55 | – | TEM 2cat [1, 17]: 1; Fibril ([1]; FigS12 panel B, TEM): 1
KFKFKFQF | 1 | 1 | 1 | 1 | 1 | 1036 | 3.015 | 3.015 | 1036 | 3.015 | 3.015 | 39.76 | 15.2 | 16.32 | 15.2 | – | Fibril ([1]; Fig S10 panel E): 1
KFKFQFF | 1 | 1 | 1 | 1 | 1 | 37.77 | 1.577 | 1.577 | 38 | 1.577 | 1.577 | 48.35 | 6.903 | 6.903 | 6.9 | – | –
KFKFQFFF | 1 | 1 | 1 | 1 | 1 | 3039 | 3.483 | 3.483 | 3039 | 3.483 | 3.483 | 49.11 | 13.27 | 15.57 | 13.27 | – | Fibril ([1]; Fig S10 panel E): 1
KFKFQFN | – | 1 | 1 | 1 | – | 50.7 | 1.705 | 1.705 | 51 | – | 1.705 | 38.13 | – | 10.12 | 12.7 | 12.7 | TEM 2cat ([1]; Fig S10 panel D): 1; TEM 2cat [1, 17]: 1; Fibril ([1]; FigS12 panel B, TEM): 1; Log10 Count Rate [3, 12]: 1.7; Log10 Count Rate [3, 18]: 1.705; ß-sheet / % [4]: 38%; Zeta pot. / mV [5]: 12.7 mV
KFKFQFNM | – | 1 | 1 | 1 | 1 | 131.8 | 2.12 | 2.12 | 132 | – | 2.12 | 40.31 | – | 18.4 | 13.9 | 13.9 | TEM 2cat ([1]; Fig S10 panel D): 1; Fibril ([1]; Fig S10 panel E): 1; Log10 Count Rate [3, 18]: 2.12
KFKFQFW | 1 | 1 | 1 | 1 | 1 | 121.9 | 2.086 | 2.086 | 122 | 2.086 | 2.086 | 35.45 | – | 8.995 | 6.49 | 6.49 | –
KFKQFFINMWQ | 1 | 1 | 1 | 1 | 1 | 8996 | 3.954 | 3.954 | 8996 | 3.954 | 3.954 | 38.37 | – | 10.28 | 7.99 | 7.99 | –
